Results from patent US20150057366A1, “SYNTHESIS OF ELEMICIN AND TOPICAL ANALGESIC COMPOSITIONS” (priority 2012, published 2015).

Test: Preliminary work by the applicant on topical analgesic effectiveness of elemicin compositions
Assay type: in vivo

## C/C=C/c1cc(OC)c(OC)c(OC)c1 [iso-elemicin]
Topical analgesic compositions, work thus far by the inventor
  effectiveness in analgesic compositions: also effective

## C=CCc1cc(OC)c(OC)c(OC)c1 [elemicin, 1,2,3-Trimethoxy-5-prop-2-enylbenzene]
Topical composition, 30% more preferred, preliminary work
  elemicin content compositions require to start being effective as topical analgesics: at least 20%
topical, around 2.4-3.0% in nutmeg and manila elemi oils, up to around 10-14% in mace and some elemi oil
  analgesic effectiveness at the concentrations occurring in natural oils: analgesic effectiveness does not occur at such low doses
